Measurements published in PMC3707847 (PLoS ONE, 2013).

What was measured:
[1] = target: T1, recombinant IAV polymerase complex (PA/PB1/PB2) (Influenza A virus, UniProt F6KI70); type: biochemical, H3N2 IAV strain (A/chicken/Nanchang/3-120/01); conditions: for Primer extension products opposite C on template: template t14-1, 100 µM nucleotide plus 25 µM CTP and UTP; for Kapp, single NMP incorporation opposite cytidine (N:C): template t14-1, position +10; for Discrimination (Kapp,NTP/Kapp,GTP), opposite cytidine: template t14-1, relative to natural GTP; for Primer extension products opposite U on template: template t14-2, 100 µM nucleotide; for Discrimination (Kapp,NTP/Kapp,ATP), opposite uridine: template t14-2, relative to natural ATP; for Primer extension products with multiple incorporation sites (UCC at +10 to +12): template t14-3, 100 µM nucleotide
[2] = test system: influenza virus RNP complex (RdRp activity); type: biochemical, Influenza virus (A/WSN/33 (H1N1))
[3] = target: T1, recombinant IAV polymerase complex (PA/PB1/PB2); type: biochemical, H3N2 IAV strain (A/chicken/Nanchang/3-120/01); conditions: T-705 RTP at 100 µM; for Effect of increasing natural GTP to 300 µM on inhibition of polymerase activity: GTP 300 µM vs low, 3′dGTP data not shown

Row | SMILES | Inhibition of radiolabeled viral RNA synthesis by RNP complex [2] | Effect of increasing natural GTP to 300 µM on inhibition of polymerase activity [3] | Primer extension products opposite C on template [1] | Kapp, single NMP incorporation opposite cytidine (N:C) [1] | Discrimination (Kapp,NTP/Kapp,GTP), opposite cytidine [1] | Primer extension products opposite U on template [1] | Kapp, single NMP incorporation opposite uridine (N:U) ([1]; template t14-2, position +10) [µM] | Discrimination (Kapp,NTP/Kapp,ATP), opposite uridine [1] [fold] | Primer extension products with multiple incorporation sites (UCC at +10 to +12) [1] | also measured
1 | Nc1ncnc2c1ncn2[C@@H]1O[C@H](COP(=O)(O)OP(=O)(O)OP(=O)(O)O)C[C@H]1O [3′dATP] | – | – | – | – | – | – | – | – | – | Incorporation by IAVpol in single nucleotide incorporation assay ([1]; data not shown): not significantly incorporated by IAVpol
2 | Nc1nc2c(ncn2[C@@H]2O[C@H](COP(=O)(O)OP(=O)(O)OP(=O)(O)O)C[C@H]2O)c(=O)[nH]1 [3′dGTP, 3′-deoxy GTP] | progressive inhibition of radio-labeled RNA synthesis | almost completely prevented the inhibition of polymerase activity | produced only a 10-mer chain termination product | – | – | – | – | – | – | –
3 | Nc1ncnc2c1ncn2[C@@H]1O[C@H](COP(=O)(O)OP(=O)(O)OP(=O)(O)O)[C@@H](O)[C@H]1O [ATP] | – | – | mis-incorporation was slightly increased | 2,560±720 µM | 330,000 fold | converted to 14-mer full length product | 0.022 ± 0.003 | 1 | most of the 9-mer was converted to 10-mer | Error rate of RNA synthesis by IAV polymerase, A:C mismatch ([1]; ATP opposite cytidine, calculated from Kapp): 3.1×10^−6; Kapp for ATP opposite uridine as printed in text ([1]; template t14-2, position +10): 0.022 ± 0.003 µM⁻¹; Kapp for ATP incorporation, t14-3 template ([1]; template t14-3, 9-mer to +10 position): 0.038 µM
4 | Nc1nc2c(ncn2[C@@H]2O[C@H](COP(=O)(O)OP(=O)(O)OP(=O)(O)O)[C@@H](O)[C@H]2O)c(=O)[nH]1 [GTP] | – | – | converted to the 14-mer full length extension product | 0.0078 ± 0.003 µM | 1 fold | robust 14-mer RNA product | 9.2 ± 0.54 | 420 | – | Error rate of RNA synthesis by IAV polymerase, G:U mismatch ([1]; GTP opposite uridine, calculated from Kapp): 2.4×10^−3
5 | NC(=O)c1nc(F)cn([C@@H]2O[C@H](COP(=O)(O)OP(=O)(O)OP(=O)(O)O)[C@@H](O)[C@H]2O)c1=O [T-705 RTP, T-705 ribofuranosyl 5′-triphosphate] | inhibited the RdRp activity of influenza virus vRNPs | almost completely prevented the inhibition of polymerase activity | conversion of the 9-mer to 14-mer, with an additional 10-mer product | – | – | conversion of the 9-mer to 10- and 14-mer products | – | – | complete inhibition of further nucleotide incorporation | Potency relative to 3′dGTP against RNP complex [2]: significantly more potent than 3′dGTP; Effect of increasing natural ATP to 300 µM on inhibition ([3]; ATP 300 µM vs 3 µM): same loss of inhibition effect; Effect of CTP and UTP at varying concentrations on inhibition potency ([3]; CTP or UTP 3 or 300 µM): did not change the inhibition potency
